Measurements: patent US11717508B2, “Compounds, compositions, and methods for inhibiting bacterial growth” (priority 2016, dated 2023)
Where two headings read alike, the source gives them in different places.

Legend:
[1] = tested on: CDC1551(hspX′:GFP) reporter; test: microbe, parasite or virus in culture; format: cell-based, Mycobacterium tuberculosis; details: Mycobacterium tuberculosis, 6 days of treatment
[2] = tested on: Mtb; test: microbe, parasite or virus in culture; format: cell-based; details: Mycobacterium tuberculosis; 6 days, optical density; unit given as M; read-out: growth inhibition EC50
[3] = tested on: DosR regulon genes (dosR, hspX and tgs1); test: NO and vitamin C sensitivity assays (RT-PCR); format: cell-based, Mycobacterium tuberculosis; details: for induction of dosR / induction of hspX / induction of tgs1: 2 h
[4] = tested on: Mtb Erdman; details: 1 μM and 5 μM INH, ten days post INH treatment
[5] = tested on: Mtb Erdman; test: microbe, parasite or virus in culture; details: Mycobacterium tuberculosis, 240 h, read-out: viability, INH alone
[6] = read-out: EC50 of inhibition of CDC1551(hspX′:GFP) reporter (dosR-dependent GFP) fluorescence

In the case of `CN(C)CCCN1C(=O)c2cccc3c(Br)ccc(c23)C1=O` [HC104A, 6-bromo-2-[3-(dimethylamino)propyl]benzo[de]isoquinoline-1,3-dione], the EC50 ([1]; unit given as M, read-out: EC50 of inhibition of dosR-dependent GFP fluorescence) is reported as 2.8 µM and the EC50 [2] is reported as over 80 µM.
In the case of `O=C1O[C@H]([C@@H](O)CO)C(O)=C1O` [vitamin C, reference compound], the “induction of dosR” value ([3]; 2 mM vitamin C) is reported as 4 fold, the “induction of hspX” value ([3]; 2 mM vitamin C) is reported as 14 fold and the “induction of tgs1” value ([3]; 2 mM vitamin C) is reported as 52 fold.
`CCCS(=O)(=O)N1CCN(Cc2ccc3c(c2)c2ccccc2n3CC)CC1` [HC105A, 9-ethyl-3-[(4-propylsulfonylpiperazin-1-yl)methyl]carbazole; oxalic acid] was tested, and the EC50 [1, 6] was 12.7 µM and the EC50 [2] was over 80 µM.
`O=C(Nc1ccno1)Nc1ccc(Cl)cc1Cl` [HC106A, 1-(2,4-dichlorophenyl)-3-(1,2-oxazol-5-yl)urea] showed an EC50 [1, 6] of 6.9 µM and an EC50 [2] of over 80 µM.
With `[N]=O` [NO, reference compound] the “induction of dosR” value ([3]; NO (50 μM DETA-NONOate)) was 491 fold, the “induction of hspX” value ([3]; NO (50 μM DETA-NONOate)) was 373 fold and the “induction of tgs1” value ([3]; NO (50 μM DETA-NONOate)) was 47 fold.
In the case of `NNC(=O)c1ccncc1` [INH, isoniazid, reference compound], the “viability, INH alone” value [4] is reported as about 100% and the viability at 25 µM [5] is reported as about 75%.
`C[C@H]1[C@@H](O)O[C@@H]2O[C@@]3(C)CC[C@H]4[C@H](C)CC[C@@H]1[C@@]24OO3` [DHA, dihydroartemisinin, reference compound] was tested, and the “reduction of magnitude of induction of transcripts in response to DETA-NONOate vs DMSO treatment” value ([3]; 80 μM pretreatment 24 h) was about 2 fold.
